We go through 7 molecules from patent US10138237B2, “1,2,4-triazolo[4,3-a]pyridine compounds and their use as positive allosteric modulators of mGluR2 receptors” (Janssen Pharmaceutica NV, priority 2014, dated 2018).

Series [1] relates to major depressive disorder with anxiety symptoms. Particulars: adjunctive administration; adults with major depressive disorder with anxiety symptoms; cited from earlier work.
Series [2] deals with smoking cessation-induced deficits. Particulars: versus placebo; cited from earlier work.
The subject of series [3] is S-ketamine-induced negative symptoms. Particulars: healthy volunteers and patients with predominant negative symptoms of schizophrenia; cited from earlier work.
A further series deals with T1, human mGlu2 receptor (Homo sapiens, UniProt Q14416).
T1 construct: expressed in transfected cells; host or cells: CHO cells (membrane preparation)
T1 sequence (Q14416 19-872): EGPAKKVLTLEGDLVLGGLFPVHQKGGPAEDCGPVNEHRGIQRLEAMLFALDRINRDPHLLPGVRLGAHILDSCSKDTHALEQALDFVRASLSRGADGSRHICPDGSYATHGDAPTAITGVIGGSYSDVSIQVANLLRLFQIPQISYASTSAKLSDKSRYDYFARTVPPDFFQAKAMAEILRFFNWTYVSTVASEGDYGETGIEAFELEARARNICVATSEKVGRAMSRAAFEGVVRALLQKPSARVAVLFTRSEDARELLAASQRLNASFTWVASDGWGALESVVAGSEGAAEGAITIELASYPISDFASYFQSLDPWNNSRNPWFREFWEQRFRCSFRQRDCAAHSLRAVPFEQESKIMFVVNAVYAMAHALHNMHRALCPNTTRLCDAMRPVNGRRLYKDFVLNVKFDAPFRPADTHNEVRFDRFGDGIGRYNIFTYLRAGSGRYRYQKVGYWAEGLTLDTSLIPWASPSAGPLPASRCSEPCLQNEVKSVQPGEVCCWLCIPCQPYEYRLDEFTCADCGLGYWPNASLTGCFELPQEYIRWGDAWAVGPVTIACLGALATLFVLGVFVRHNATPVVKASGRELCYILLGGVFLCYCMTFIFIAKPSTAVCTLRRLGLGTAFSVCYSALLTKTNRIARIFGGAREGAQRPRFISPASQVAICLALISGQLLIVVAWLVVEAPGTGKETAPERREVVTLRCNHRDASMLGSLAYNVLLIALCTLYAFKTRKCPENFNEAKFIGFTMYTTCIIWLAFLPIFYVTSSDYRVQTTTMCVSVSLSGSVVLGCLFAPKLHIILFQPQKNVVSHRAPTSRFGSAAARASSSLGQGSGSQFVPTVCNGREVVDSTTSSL
Briefly: [35S]GTPγS binding assay, hmGluR2 PAM. The class given is biochemical. Particulars: in presence of EC20 glutamate; for Emax / GTPγS - hmGluR2 PAM Emax: maximal % effect relative to the control glutamate response; for EC50: membranes from CHO cells with human mGlu2 receptor, -log EC50 in M, read-out: GTPγS - hmGluR2 PAM pEC50 (converted). An excerpt: The compounds provided in the present invention are positive allosteric modulators of mGluR2. These compounds appear to potentiate glutamate responses by binding to an allosteric site other than the glutamate binding site. The response of mGluR2 to a concentration of glutamate is increased when compounds of Formula (I) are present. Compounds of Formula (I) are expected to have their effect substantially at mGluR2 by virtue of their ability to enhance the function of the receptor. The effects of positive allosteric modulators tested at mGluR2 using the [^35S]GTPγS binding assay method described below and which is suitable for the identification of such compounds, and more particularly the compounds according to Formula (I), are shown in Table 8.
[^35S]GTPγS Binding Assay
The [^35S]GTPγS binding assay is a functional membrane-based assay used to study G-protein coupled receptor (GPCR) function whereby incorporation of a non-hydrolysable form of GTP, [^35S]GTPγS (guanosine 5′-triphosphate, labelled with […] ^35S), is measured. The G-protein α subunit catalyzes the exchange of guanosine 5′-diphosphate (GDP) by guanosine triphosphate (GTP) and on activation of the GPCR by an agonist, [^35S]GTPγS, becomes incorporated and cannot be cleaved to continue the exchange cycle (Harper (1998) Current Protocols in Pharmacology 2.6.1-10, John Wiley & Sons, Inc.). […] Here we describe the use of the [^35S]GTPγS binding assay using membranes from cells transfected with the human mGlu2 receptor and adapted from Schaffhauser et al. (Molecular Pharmacology, 2003, […]) for the detection of the positive allosteric modulation (PAM) properties of the compounds of this invention.
CHO-cells were cultured to pre-confluence and stimulated with 5 mM butyrate for 24 h. Cells were then collected by scraping in PBS and cell suspension was centrifuged (10 min at 4000 RPM in benchtop centrifuge). Supernatant was discarded and pellet gently resuspended in 50 mM Tris-HCl, pH 7.4 by mixing with a vortex and pipetting up and down. The suspension was centrifuged at 16,000 RPM (Sorvall RC-5C plus rotor SS-34) for 10 minutes and the supernatant discarded. The pellet was homogenized in 5 mM Tris-HCl, pH 7.4 using an ultra-turrax homogenizer and centrifuged again (18,000 RPM, 20 min, 4° C.). The final pellet was resuspended in 50 mM Tris-HCl, pH 7.4 and stored at −80° C. in appropriate aliquots before use. Protein concentration was determined by the Bradford method (Bio-Rad, USA) with bovine serum albumin as standard.
Measurement of mGluR2 positive allosteric modulatory activity of test compounds was performed as follows. Test compounds and glutamate were diluted in assay buffer containing 10 mM HEPES acid, 10 mM HEPES salt, pH 7.4, 100 mM NaCl, 3 mM MgCl2 and 10 μM GDP. Human mGlu2 receptor-containing membranes were thawed on ice and diluted in assay buffer supplemented with 14 μg/ml saponin. Membranes were pre-incubated with compound alone or together with a predefined (˜EC20) concentration of glutamate (PAM assay) for 30 min at 30° C. After addition of [^35S]GTPγS (f.c. 0.1 nM), assay mixtures were shaken briefly and further incubated to allow [^35S]GTPγS incorporation on activation (30 minutes, 30° C.). Final assay mixtures contained 7 μg of membrane protein in 10 mM HEPES acid, 10 mM HEPES salt, pH 7.4, 100 mM NaCl, 3 mM MgCl2, 10 μM GDP and 2 μg/ml saponin. Total reaction volume was 200 μl. Reactions were terminated by rapid filtration through Unifilter-96 GF/B plates (Perkin Elmer, Massachusetts, USA) using a 96-well filtermate universal harvester. Filters were washed 6 times with ice-cold 10 mM NaH2PO4/10 mM Na2HPO4, pH 7.4. Filters were then air-dried, and 40 μl of liquid scintillation cocktail (Microscint-O) was added to each well. Membrane-bound radioactivity was counted in a Microplate Scintillation and Luminescence Counter from Perkin Elmer. […]

For series [4], the system named is 6 Hz (32 mA, 3 s, corneal) limbic seizure in mice. Briefly: Anticonvulsant studies - 6 Hz test in mice. The class given is in vivo. Particulars: Mus musculus, Score ≤ 2 (protected), 32 mA for 3 s. How it is done:
Anticonvulsant Studies—6 Hz Test in Mice
At a predefined interval after drug treatment (standard: 0.5 h). individual mice were challenged with sufficient current (32 mA for 3 s; delivered through corneal electrodes) to elicit a limbic seizure. The manifestations of the “psychomotor” seizure were first described by Toman (Toman, J. E. P., 1951, “Neuropharmacologic considerations in psychic seizures” Neurology, 1, 444-460; Toman, J. E. P., Evertett, G. M., Richards, R. K., 1952, “The search for new drugs against epilepsy” Tex. Rep. Biol. Med. 10, 96-104). […] This may be characterized by immobility, or a lack of awareness regarding its environment as it goes directly into behaviours 2 and 3 (forepaw clonus or facial automatisms). The stun posture is most often upright, but the mouse may also fall on its side during a seizure; the fore limbs are often crossed and the hind limbs are spread wide apart. The “stunning” may occasionally be preceded by a few seconds of running with a rolling gait. 2) Forepaw clonus or automatism: usually resembles the mouse repeatedly raising its forepaw and then stomping it onto the ground. This is generally repeated several times, but must be repeated at least twice to be considered present. 3) Facial automatism: in the mouse best resembles jaw chomping or air biting; this also must occur at least twice to be considered present. 4) Elevated or Straub tail, which must be elevated to greater than a 45 degree angle to be considered present. The duration of the seizure varies from 5 to 75 s; at the end of the seizure, the animal rather suddenly resumes normal locomotion and exploratory behaviour. Each of the four above mentioned behaviours was scored as either absent (0) or present (1).

In the case of `CCCCn1ccc(N2CCC(c3ccccc3)CC2)c(Cl)c1=O` [JNJ-40411813/ADX71149], in series [1], the “efficacy on several secondary outcome measures of both depression and anxiety” value is “showed efficacy signals”; the “efficacy on the primary outcome measure” value was “no efficacy signal was detected”. In series [2], the “effect on craving and smoking cessation-induced deficits in attention and episodic memory” value was “reduce craving and improve smoking cessation-induced deficits in attention and episodic memory”. The “efficacy in S-ketamine-induced negative symptoms” value in series [3] is given as “showed an efficacy signal”.
As to `CCOCc1nnc2c(C(F)(F)F)c(C3CCN(c4ncc(Cl)c(OCC)n4)C3)ccn12` (stereo not shown) [Co. No. 2, 7-[1-(5-chloro-4-ethoxy-pyrimidin-2-yl)pyrrolidin-3-yl]-3-(ethoxymethyl)-8-(trifluoromethyl)-[1,2,4]triazolo[4,3-a]pyridine], the melting point (commonly the temperature, or range, at which the solid turns liquid) is 153.86 °C. Further, on human mGlu2 receptor, the Emax (commonly the maximal effect, on the per cent scale that the assay sets) is 345% and the EC50 was 17 nM.
For `CCOc1nc(N2CCC(c3ccn4c(CC5CC5)nnc4c3C(F)(F)F)C2)ncc1Cl` (stereo not shown) [Co. No. 1, 7-[1-(5-chloro-4-ethoxy-pyrimidin-2-yl)pyrrolidin-3-yl]-3-(cyclopropylmethyl)-8-(trifluoromethyl)-[1,2,4]triazolo[4,3-a]pyridine], at human mGlu2 receptor, the Emax turned out to be 234% and the EC50 was 5.89 nM.
Consider `CCOc1nc(N2CCC(c3ccn4c(CC5CC5)nnc4c3C(F)(F)F)C2)ncc1Cl` (single isomer, unassigned) [Co. No. 1a, 7-[(3*R)-1-(5-chloro-4-ethoxy-pyrimidin-2-yl)pyrrolidin-3-yl]-3-(cyclopropylmethyl)-8-(trifluoromethyl)-[1,2,4]triazolo[4,3-a]pyridine], for which the melting point was 167.64 °C. Further, at human mGlu2 receptor, the “GTPγS - hmGluR2 PAM Emax” value is reported as 148.44% and the EC50 is 214 nM.
Take `CCOc1nc(N2CCC(c3ccn4c(CC5CC5)nnc4c3C(F)(F)F)C2)ncc1Cl` (single isomer, unassigned) [Co. No. 1b, 7-[(3*S)-1-(5-chloro-4-ethoxy-pyrimidin-2-yl)pyrrolidin-3-yl]-3-(cyclopropylmethyl)-8-(trifluoromethyl)-[1,2,4]triazolo[4,3-a]pyridine]: the melting point was determined as 168.29 °C. Besides, on human mGlu2 receptor, the “GTPγS - hmGluR2 PAM Emax” value is given as 277.87% and the EC50 was 3.8 nM. In addition, it took a dose of 20 mg/kg to reach the 50% effect level in series [4] (route PO) (ED50). Besides, the ED50 (as a rule, the midpoint of the dose-response relation) in series [4] (route SC) was found to be 3.79 mg/kg.
In the case of `CCOCc1nnc2c(C(F)(F)F)c(C3CCN(c4ncc(Cl)c(OCC)n4)C3)ccn12` (single isomer, unassigned) [Co. No. 2b, 7-[(3*S)-1-(5-chloro-4-ethoxy-pyrimidin-2-yl)pyrrolidin-3-yl]-3-(ethoxymethyl)-8-(trifluoromethyl)-[1,2,4]triazolo[4,3-a]pyridine], at human mGlu2 receptor (listed as 2b), the “GTPγS - hmGluR2 PAM Emax” value came out at 295.62%. At human mGlu2 receptor, the EC50 is 9.77 nM. Moreover, the ED50 in series [4] (route PO) was 20 mg/kg.
In the case of `CCOCc1nnc2c(C(F)(F)F)c(C3CCN(c4ncc(Cl)c(OCC)n4)C3)ccn12` (single isomer, unassigned) [Co. No. 2a, 7-[(3*R)-1-(5-chloro-4-ethoxy-pyrimidin-2-yl)pyrrolidin-3-yl]-3-(ethoxymethyl)-8-(trifluoromethyl)-[1,2,4]triazolo[4,3-a]pyridine], the “GTPγS - hmGluR2 PAM Emax” value at human mGlu2 receptor (listed as 2a) is 226.905%. On human mGlu2 receptor, the EC50 was 2090 nM.
